Read-outs that look alike come from different tables or passages of the source.
Tested on: Established Adjuvant-Induced Arthritis in Rats
Assay: Established Adjuvant-Induced Arthritis in Rats (uninjected left hind paw volume)
Format: in vivo, Lewis (Wistar) male rats
Settings: for ED50: 168 h, read-out: ED50 % Decrease From Control Paw Volume; for inhibition in vivo at 27 mg/kg: Daily Oral Dose 27 mg/kg; for inhibition in vivo at 20 mg/kg: Daily Oral Dose 20 mg/kg
[1] = Rattus norvegicus, oral gavage once daily for 7 days (days 14-20), estimated by inspection of dose-response regression lines
[2] = Rattus norvegicus, 504 h, once daily for 7 days (days 14-20), paw volume on day 21, read-out: Percent Decrease from Control Paw Volume

With `CC(=O)Oc1ccccc1C(=O)O` [Aspirin, reference compound] the ED50 (Rattus norvegicus, po) was 270 mg/kg.

`Fc1ccc(-c2cc(SC(F)(F)F)sc2-c2ccc(F)cc2)cc1` [Example 1, 2,3-bis(4-Fluorophenyl)-5-(trifluoromethylthio)thiophene] was tested, and the ED50 [1] was 3.5 mg/kg.

`O=S(=O)(c1cc(-c2ccc(F)cc2)c(-c2ccc(F)cc2)s1)C(F)(F)F` [Example 2, 2,3-bis(4-Fluorophenyl)-5-(trifluoromethylsulfonyl)thiophene] gave an ED50 [1] of 10 mg/kg.

`COc1ccc(-c2cc(SC)sc2-c2ccc(OC)cc2)cc1` [Example 3, 2,3-bis(4-Methoxyphenyl)-5-(methylthio)thiophene] was tested, and the inhibition in vivo at 27 mg/kg [2] was 43%.

With `COc1ccc(-c2cc(SC(F)(F)C(F)F)sc2-c2ccc(OC)cc2)cc1` [Example 4, 2,3-bis(4-Methoxyphenyl)-5-(1,1,2,2-tetrafluoroethylthio)thiophene] the inhibition in vivo at 27 mg/kg [2] was 11% and the “antiinflammatory activity (statistical significance)” value (at the dose level tested) was “did not exhibit statistically significant antiinflammatory activity”.

`FC(F)(F)Sc1cc(-c2ccccc2)c(-c2ccccc2)s1` [Example 5] was tested, and the inhibition in vivo at 20 mg/kg [2] was 33%.

`COc1ccc(-c2cc(SC(F)(F)F)sc2-c2ccc(OC)cc2)cc1` [Example 6] was tested, and the inhibition in vivo at 20 mg/kg [2] was 32%.

Compound `Fc1ccc(-c2sc(SC(F)(F)F)cc2-c2ccc(Cl)cc2)cc1` [Example 7] has an ED50 [1] of 4 mg/kg.

With `CSc1cc(-c2ccc(F)cc2)c(-c2ccc(F)cc2)s1` [Example 8] the inhibition in vivo at 27 mg/kg [2] was 25%.

`Fc1ccc(-c2cc(SC(F)(F)F)sc2-c2ccc(Cl)cc2)cc1` [Example 9] gave an ED50 [1] of 10 mg/kg.

Compound `Fc1ccc(-c2cc(SC(F)(F)C(F)F)sc2-c2ccc(F)cc2)cc1` [Example 10] has an inhibition in vivo at 27 mg/kg [2] of 28%.

`COc1ccc(-c2cc(S(=O)(=O)C(F)(F)C(F)F)sc2-c2ccc(OC)cc2)cc1` [Example 11] was tested, and the inhibition in vivo at 27 mg/kg [2] was 23%.

Compound `O=S(=O)(c1cc(-c2ccc(F)cc2)c(-c2ccc(F)cc2)s1)C(F)(F)C(F)F` [Example 12] has an inhibition in vivo at 27 mg/kg [2] of 34%.

Compound `CCCCCCSc1cc(-c2ccc(OC)cc2)c(-c2ccc(OC)cc2)s1` [Example 20] has an inhibition in vivo at 81 mg/kg (Rattus norvegicus, 504 h, Daily Oral Dose 81 mg/kg, once daily for 7 days (days 14-20), paw volume on day 21, read-out: Percent Decrease from Control Paw Volume) of 39%.

For `COc1ccc(-c2cc(SC(F)(F)F)sc2-c2ccc(S(C)(=O)=O)cc2)cc1` [Example 21], the ED50 [1] was 9 mg/kg.

`CSc1ccc(-c2sc(SC(F)(F)F)cc2-c2ccc(F)cc2)cc1` [Example 22] gave an ED50 [1] of 0.4 mg/kg.

`CSc1ccc(-c2cc(SC(F)(F)F)sc2-c2ccc(F)cc2)cc1` [Example 24] was tested, and the ED50 [1] was 0.15 mg/kg.

Compound `COc1ccc2c(c1)c(CC(=O)O)c(C)n2C(=O)c1ccc(Cl)cc1` [Indomethacin, reference compound] has an ED50 (Rattus norvegicus, po) of 0.25 mg/kg.

In the case of `CCCCC1C(=O)N(c2ccccc2)N(c2ccccc2)C1=O` [Phenylbutazone, reference compound], the ED50 [1] is reported as 10 mg/kg.
